Common to all, as to assay: inhibition of tumour cell growth, NCI panel, 48 h
For assay [1], the system named is A549 NSCLC.
Assay [2] relates to EKVX NSCLC.
The subject of assay [3] is HOP-62 NSCLC.
Assay [4] concerns MDA-MB-231 breast.
Assay [5] has as its system OVCAR-5 ovarian.
Assay [6] relates to SK-MEL-28 melanoma.
Assay [7] concerns SNB-75 CNS.
The subject of assay [8] is SR leukemia.
Assay [9] has as its system SW-620 colon.
Assay [10] deals with U251 CNS.

Molecules are shown by their SMILES. Where “and” joins values, the source holds several entries; their conditions need not be identical. Equal entries are not always repeated.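 Cells were grown in 96-well plates and exposed to each compound for 48 hours at five concentrations; endpoints were interpolated linearly between bracketing concentrations, or set to the highest concentration if not reached. The concentration for 50% growth inhibition is given as GI50. The concentration for full growth arrest is given as TGI.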

The text below walks through data of PubChem BioAssay (NCI).

`NC(CSC(c1ccccc1)(c1ccccc1)c1ccc(Cl)cc1)C(=O)O` (centres undefined): the GI50 was 0.468 µM in [1]; 0.342 µM in assay [2]; 0.714 µM in assay [3]; 0.442 µM in [4]; 0.774 µM in assay [5]; 2.46 µM in [6]. Besides, the GI50 in assay [8] is 0.121 µM; in assay [9], 0.19 µM; in assay [10], 0.0978 µM. Moreover, the TGI in [1] was more than 62 µM; in [2], more than 33.9 µM; in assay [3], 20.5 µM; in assay [4], 35.8 µM; in assay [5], more than 63.9 µM; in [6] it was 44.3 µM. Further, the TGI in assay [7] was 1.85 µM; in assay [8], 5.93 µM; in [9], more than 78.7 µM; in assay [10] it was 18.1 µM.

Turning to `CC(C)C1OC(=O)C=C1Sc1ccccc1` (centres undefined), the TGI in assay [1], in assay [2], in assay [3], in assay [4], in assay [5] and in [6] was more than 100 µM in each case. The TGI in [7], in [8], in assay [9] and in [10] was more than 100 µM each time.

On to `COc1cc(NCCCCN=C(N)NC(N)=NC(C)C)c2ncccc2c1`, for which the GI50 in assay [1] was 35.4 µM; in assay [2], 5.83 µM; in [3] it was 13.7 µM; in assay [4], 1.94 µM; in assay [5], 17.3 µM; in [6], 12.1 µM. Moreover, the GI50 in [7] was 4.21 µM; in [8], 7.01 µM; in assay [9], 5.76 µM; in assay [10], 5.65 µM. The TGI in [1] is more than 100 µM; in assay [2] it was more than 62 µM; in assay [3] it was 28.6 µM; in assay [4], 17.8 µM; in [5] it was more than 88.3 µM; in assay [6], 24.7 µM. Besides, the TGI in [7] amounted to 17.3 µM; in assay [8], 32.6 µM; in [9], 22.2 µM; in assay [10], 21.1 µM.

As for `COc1ccc(/C(Cl)=C(\C=O)c2ccc([N+](=O)[O-])cc2)cc1OC`, the TGI in assay [1] was more than 100 µM; in assay [2] it was more than 59.7 µM; in [3], more than 100 µM; in assay [4], 83.9 µM; in [5], more than 100 µM; in [6], 30.5 µM. For the same compound, the TGI in [7] is 20 µM; in assay [8], 83.3 µM; in assay [9] it was 28.1 µM; in assay [10], 20.2 µM.

On to `CCOc1ccc([C@@H]2[C@@H](Oc3ccccc3)C(=O)N2c2cc(OC)c(OC)c(OC)c2)cc1`, for which the GI50 in [1] was 0.215 µM; in assay [2] it was 0.0937 µM; in [3], 0.0586 µM; in assay [4], 0.177 µM; in [5], 0.47 µM; in assay [6], 1.89 µM. For the same compound, the GI50 is 0.037 µM in assay [7], 0.0483 µM in [8], 0.0536 µM in assay [9] and 0.0462 µM in [10]. Besides, the TGI in assay [1], in assay [2], in [3], in assay [4], in assay [5] and in assay [6] was more than 100 µM each time. In addition, the TGI in [7], in assay [8], in assay [9] and in assay [10] was more than 100 µM in each case.

With `CCCCCC(O)C1C(=O)OC(C)C(O)/C=C/C=C/C=C/C=C\C=C(\C)C(O)CC(O)CC(O)CC(O)CC(O)CC(O)CC1O` (centres undefined), the GI50 in [1], in [2], in assay [3], in assay [4], in assay [5] and in [6] was more than 100 µM in each case. Moreover, the GI50 in [7], in [8], in assay [9] and in assay [10] was more than 100 µM in each case. Besides, the TGI in assay [1], in assay [2], in [3], in assay [4], in [5] and in assay [6] was more than 100 µM each time. For the same compound, the TGI in assay [7], in [8], in assay [9] and in assay [10] was more than 100 µM throughout.

In the case of `CC1/C=C/C=C/C=C/C=C/C=C/C=C/C=C/C(O[C@@H]2O[C@H](C)[C@H](O)[C@@H](O)[C@@H]2N)CC(O)C(C(=O)O)C(O)CC(=O)CC(O)CC(O)CC(O)CC(=O)CCCC(=O)CC(=O)OC1C(C)CC(C)C(O)CC(=O)c1ccc(N)cc1` (some centres undefined), the GI50 in assay [1] was 0.0561 µM and 0.169 µM; in [2], 0.0644 µM and 0.221 µM; in assay [3], 0.063 µM and 0.192 µM; in assay [4], 0.0613 µM and 0.3 µM; in [5] it was 0.0792 µM and 0.357 µM; in assay [6] it was 0.0622 µM and 0.189 µM. Besides, the GI50 was 0.0596 µM and 0.242 µM in assay [7]; 0.0835 µM and 0.168 µM in [8]; 0.0588 µM and 0.198 µM in assay [9]; 0.0552 µM and 0.204 µM in assay [10]. Also, the TGI in assay [1] is 0.101 µM and 0.305 µM; in assay [2], 0.126 µM and 0.484 µM; in assay [3] it was 0.118 µM and 0.402 µM; in [4], 0.118 µM and 0.943 µM; in assay [5] it was 0.216 µM and 1.3 µM; in [6], 0.108 µM and 0.356 µM. Also, the TGI in assay [7] is 0.12 µM and 0.787 µM; in [8] it was 0.254 µM and 0.422 µM; in assay [9], 0.109 µM and 0.43 µM; in assay [10], 0.0996 µM and 0.49 µM.

For `Cc1nc2sccn2c(=O)c1CCN1CCC(=C(c2ccc(F)cc2)c2ccc(F)cc2)CC1`, the GI50 in assay [1] was 12.9 µM; in [2], 10.7 µM; in [3], 17.9 µM; in assay [4], 15.2 µM; in assay [5], 15.2 µM; in [6] it was 13.4 µM. Also, the GI50 in assay [7] is 14.5 µM; in assay [8] it was 0.551 µM; in assay [9] it was 10.9 µM; in [10], 10.5 µM. Moreover, the TGI in assay [1] worked out at 29.1 µM; in assay [2], 24.1 µM; in assay [3], 33.4 µM; in [4], 31.9 µM; in assay [5], 29.4 µM; in assay [6], 26.9 µM. Moreover, the TGI in [7] is 28.7 µM; in [8] it was 26.7 µM; in [9] it was 24.1 µM; in assay [10] it was 23.7 µM.
